Source: ChEMBL document CHEMBL5506043, “A β-Carboline Derivate PAD4 Inhibitor Reshapes Neutrophil Phenotype and Improves the Tumor Immune Microenvironment against Triple-Negative Breast Cancer” (J Med Chem, 2024)
The source made the active and inactive calls. The rule behind the calls is not given here.

Legend:
[1] = target: Protein-arginine deiminase type-4 (Mus musculus) (UniProt Q9Z183); experiment: Inhibition of PAD4 in mouse 4T1 cells assessed as reduction in histone H3 citrullination at 2 uM by immunofluorescence analysis; type: cell-based
Protein-arginine deiminase type-4 (Mus musculus), sequence (Q9Z183 whole entry): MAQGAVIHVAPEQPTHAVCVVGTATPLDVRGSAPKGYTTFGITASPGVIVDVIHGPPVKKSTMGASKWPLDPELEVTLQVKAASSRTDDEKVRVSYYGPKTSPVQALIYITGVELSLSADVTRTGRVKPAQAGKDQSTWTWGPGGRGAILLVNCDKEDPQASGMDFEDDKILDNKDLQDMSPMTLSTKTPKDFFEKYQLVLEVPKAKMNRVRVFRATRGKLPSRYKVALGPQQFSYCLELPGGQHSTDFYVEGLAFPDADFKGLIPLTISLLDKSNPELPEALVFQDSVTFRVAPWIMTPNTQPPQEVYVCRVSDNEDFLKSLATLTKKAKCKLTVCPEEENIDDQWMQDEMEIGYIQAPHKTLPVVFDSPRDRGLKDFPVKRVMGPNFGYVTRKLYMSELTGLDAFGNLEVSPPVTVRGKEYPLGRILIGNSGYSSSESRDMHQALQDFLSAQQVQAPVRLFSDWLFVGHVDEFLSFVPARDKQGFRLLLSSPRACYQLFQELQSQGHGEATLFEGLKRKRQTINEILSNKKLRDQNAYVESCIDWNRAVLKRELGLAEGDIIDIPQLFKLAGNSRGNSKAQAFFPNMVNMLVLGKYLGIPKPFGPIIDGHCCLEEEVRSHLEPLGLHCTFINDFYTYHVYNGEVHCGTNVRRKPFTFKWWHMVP

[2] = test system: 4T1; experiment: Antimetastatic activity in starved mouse 4T1 cells assessed as inhibition of cell migration by measuring reduction in number of metastatic cells incubated for 12 hrs by crystal violet staining based transwell assay; type: functional; details: dose 0.5-2 µM
[3] = test system: 4T1-Luc; experiment: Antitumor activity against mouse orthotopic 4T1-Luc cells implanted in iv dosed female BALB/c mouse assessed as reduction in tumor volume administered via tail vein every 2 days for 9 times for 17 days and measured every 2 days; type: functional, organism-based; details: dose 1-10 mg/kg, time 17.0 day
[4] = test system: 4T1; experiment: Antiproliferative activity against mouse 4T1 cells assessed as inhibition of cell growth incubated for 48 hrs by MTT assay; type: functional, cell-based; details: 4T1, 48 h
[5] = Toxicity in female BALB/c mouse implanted with mouse orthotopic 4T1-Luc cells assessed as effect on serum ALT level at 1 to 10 mg/kg, iv administered via tail vein every 2 days for 9 times for 17 days; type: organism-based; details: in vivo, 408 h, dose 1-10 mg/kg, time 17 day
[6] = Toxicity in female BALB/c mouse implanted with mouse orthotopic 4T1-Luc cells assessed as morphological changes in spleen at 1 to 10 mg/kg, iv administered via tail vein every 2 days for 9 times for 17 days by H and E staining based analysis; type: organism-based; details: in vivo, 408 h, dose 1-10 mg/kg, time 17 day
[7] = test system: 4T1-Luc; experiment: Antitumor activity against mouse orthotopic 4T1-Luc cells implanted in female BALB/c mouse assessed as increase in neutrophil infiltration in tumor at 10 mg/kg, iv administered via tail vein every 2 days for 9 times for 17 days by immunohistochemical staining based analysis; type: functional, organism-based; details: time 17.0 day
[8] = AUC (0 to infinity) in male Sprague-Dawley rat at 3.5 mg/kg, iv by LC-MS/MS analysis; type: ADME, organism-based; details: in vivo
[9] = target: Protein-arginine deiminase type-4 (Homo sapiens, UniProt Q9UM07); experiment: Inhibition of PAD4 (unknown origin) using Nalpha-benzoyl-L-arginine ethyl ester as substrate preincubated for 60 mins followed by substrate addition and measured after 90 mins by colorimetric analysis
Protein-arginine deiminase type-4, sequence (Q9UM07 whole entry): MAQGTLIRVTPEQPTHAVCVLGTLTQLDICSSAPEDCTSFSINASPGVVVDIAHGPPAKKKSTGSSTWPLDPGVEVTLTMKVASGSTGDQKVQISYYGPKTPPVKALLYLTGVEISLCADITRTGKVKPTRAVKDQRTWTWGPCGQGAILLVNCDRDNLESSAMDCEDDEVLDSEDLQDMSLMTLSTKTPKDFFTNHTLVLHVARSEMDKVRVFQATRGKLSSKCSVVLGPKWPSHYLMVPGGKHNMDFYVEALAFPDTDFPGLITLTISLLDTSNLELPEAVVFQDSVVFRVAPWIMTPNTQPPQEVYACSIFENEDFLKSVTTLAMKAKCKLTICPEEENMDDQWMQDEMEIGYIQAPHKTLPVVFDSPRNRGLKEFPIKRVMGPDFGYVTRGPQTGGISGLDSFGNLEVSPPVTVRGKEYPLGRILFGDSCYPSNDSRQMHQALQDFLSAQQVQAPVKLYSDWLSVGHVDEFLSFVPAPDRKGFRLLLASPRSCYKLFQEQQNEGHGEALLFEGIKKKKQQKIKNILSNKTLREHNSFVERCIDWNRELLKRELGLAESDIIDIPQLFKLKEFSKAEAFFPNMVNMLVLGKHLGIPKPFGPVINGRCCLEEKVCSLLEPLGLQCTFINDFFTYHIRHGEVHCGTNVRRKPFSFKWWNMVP

[10] = test system: 4T1-Luc; experiment: Antimetastatic activity against mouse orthotopic 4T1-Luc cells implanted in iv dosed female BALB/c mouse assessed as reduction in lung metastasis administered via tail vein every 2 days for 9 times for 17 days by IVIS live cell imaging analysis; type: functional, organism-based; details: dose 1-10 mg/kg, time 17.0 day
[11] = test system: 4T1-Luc; experiment: Antitumor activity against mouse orthotopic 4T1-Luc cells implanted in female BALB/c mouse assessed as improvement in animal survival at 10 mg/kg, iv administered via tail vein every 2 days for 9 times for 17 days and measured every 2 days; type: functional, organism-based; details: time 17.0 day
[12] = target: Protein-arginine deiminase type-2 (Homo sapiens, UniProt Q9Y2J8); experiment: Inhibition of PAD2 (unknown origin) using Nalpha-benzoyl-L-arginine ethyl ester as substrate preincubated for 60 mins followed by substrate addition and measured after 90 mins by colorimetric analysis
Protein-arginine deiminase type-2, sequence (Q9Y2J8 whole entry): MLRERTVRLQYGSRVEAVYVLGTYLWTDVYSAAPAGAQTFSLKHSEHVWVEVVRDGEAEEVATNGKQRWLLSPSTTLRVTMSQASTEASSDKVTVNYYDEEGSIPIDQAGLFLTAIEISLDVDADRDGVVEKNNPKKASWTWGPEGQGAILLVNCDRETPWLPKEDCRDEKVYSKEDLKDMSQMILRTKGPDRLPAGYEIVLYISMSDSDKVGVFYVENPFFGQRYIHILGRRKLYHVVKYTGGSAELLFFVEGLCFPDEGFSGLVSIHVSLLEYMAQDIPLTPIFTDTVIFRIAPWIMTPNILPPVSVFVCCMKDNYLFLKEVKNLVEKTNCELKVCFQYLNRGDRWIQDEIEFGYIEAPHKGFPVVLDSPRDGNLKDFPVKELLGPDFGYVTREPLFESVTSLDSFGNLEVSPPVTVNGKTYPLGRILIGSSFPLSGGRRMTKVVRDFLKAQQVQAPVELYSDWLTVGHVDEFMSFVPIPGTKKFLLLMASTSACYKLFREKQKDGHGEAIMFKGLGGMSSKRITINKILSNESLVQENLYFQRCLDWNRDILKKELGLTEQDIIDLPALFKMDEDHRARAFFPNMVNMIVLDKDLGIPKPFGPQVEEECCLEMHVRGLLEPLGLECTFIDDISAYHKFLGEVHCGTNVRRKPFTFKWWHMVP

[13] = target: Protein-arginine deiminase type-4 (Mus musculus) (UniProt Q9Z183); experiment: Inhibition of PAD4 in BALB/c mouse bone marrow neutrophils assessed as reduction in neutrophil extracellular traps formation at 2 uM preincubated for 2 hrs followed by calcium ionophore A23187 addition and measured after 2 hrs by Hoechst 33342/Ly6G staining based laser confocal microscopic analysis; type: tissue-based; details: time 4.0 hrs
[14] = test system: 4T1-Luc; experiment: Antitumor activity against mouse orthotopic 4T1-Luc cells implanted in iv dosed female BALB/c mouse assessed as inhibition of tumor growth administered via tail vein every 2 days for 9 times for 17 days and measured every 2 days by IVIS live cell imaging analysis; type: functional, organism-based; details: dose 1-10 mg/kg, time 17.0 day
[15] = test system: Mus musculus; experiment: (§1) Induction of tumor microenvironment in female BALB/c mouse implanted with mouse orthotopic 4T1-Luc cells assessed as downregulation of myeloid derived suppressive M-MDSC cells at 1 to 10 mg/kg, iv administered via tail vein every 2 days for 9 times for 17 days by single-cell mass spectrometry flow cytometry analysis; type: functional, organism-based; details: dose 1-10 mg/kg, time 17.0 day
[16] = test system: Mus musculus; experiment: Induction of tumor microenvironment in female BALB/c mouse implanted with mouse orthotopic 4T1-Luc cells assessed as increase in MHC-II expression for MHC-II-positive tumor-associated neutrophils at 1 to 10 mg/kg, iv administered via tail vein every 2 days for 9 times for 17 days; type: functional, organism-based; details: dose 1-10 mg/kg, time 17.0 day
[17] = test system: 4T1-Luc; experiment: Antimetastatic activity against mouse orthotopic 4T1-Luc cells implanted in iv dosed female BALB/c mouse assessed as reduction in lung metastasis administered via tail vein every 2 days for 9 times for 17 days by H and E staining based analysis; type: functional, organism-based; details: dose 1-10 mg/kg, time 17.0 day
[18] = Clearance in male Sprague-Dawley rat at 3.5 mg/kg, iv by LC-MS/MS analysis; type: ADME, organism-based; details: in vivo
[19] = Tmax in male Sprague-Dawley rat at 3.5 mg/kg, iv by LC-MS/MS analysis; type: ADME, organism-based; details: in vivo
[20] = test system: 4T1-Luc; experiment: Antitumor activity against mouse orthotopic 4T1-Luc cells implanted in iv dosed female BALB/c mouse assessed as reduction in tumor weight administered via tail vein every 2 days for 9 times for 17 days and measured every 2 days; type: functional, organism-based; details: dose 1-10 mg/kg, time 17.0 day
[21] = test system: 4T1; experiment: Antimetastatic activity in starved mouse 4T1 cells assessed as inhibition of cell migration by measuring reduction in wound closure rate incubated for 24 hrs by scratch wound healing assay; type: functional, cell-based; details: dose 0.5-2 µM
[22] = Toxicity in female BALB/c mouse implanted with mouse orthotopic 4T1-Luc cells assessed as effect on serum creatinine level at 1 to 10 mg/kg, iv administered via tail vein every 2 days for 9 times for 17 days; type: organism-based; details: in vivo, 408 h, dose 1-10 mg/kg, time 17 day
[23] = Toxicity in female BALB/c mouse implanted with mouse orthotopic 4T1-Luc cells assessed as morphological changes in kidney at 1 to 10 mg/kg, iv administered via tail vein every 2 days for 9 times for 17 days by H and E staining based analysis; type: organism-based; details: in vivo, 408 h, dose 1-10 mg/kg, time 17 day
[24] = test system: Mus musculus; experiment: as §1, with “G-MDSC” for “M-MDSC”; type: functional, organism-based; details: dose 1-10 mg/kg, time 17.0 day
[25] = Cmax in male Sprague-Dawley rat at 3.5 mg/kg, iv by LC-MS/MS analysis; type: ADME, organism-based; details: in vivo
[26] = test system: Mus musculus; experiment: as §1, with “decrease in proportion” for “downregulation”, “MHC-II-negative tumor-associated neutrophils” for “myeloid derived suppressive M-MDSC cells”; type: functional, organism-based; details: dose 1-10 mg/kg, time 17.0 day
[27] = test system: Mus musculus; experiment: as §1, with “increase in proportion” for “downregulation”, “MHC-II-positive tumor-associated neutrophils” for “myeloid derived suppressive M-MDSC cells”; type: functional, organism-based; details: dose 1-10 mg/kg, time 17.0 day
[28] = Toxicity in female BALB/c mouse implanted with mouse orthotopic 4T1-Luc cells assessed as effect on serum urea level at 1 to 10 mg/kg, iv administered via tail vein every 2 days for 9 times for 17 days; type: organism-based; details: in vivo, 408 h, dose 1-10 mg/kg, time 17 day
[29] = Terminal half life in male Sprague-Dawley rat at 3.5 mg/kg, iv by LC-MS/MS analysis; type: ADME, organism-based; details: in vivo
[30] = Toxicity in female BALB/c mouse implanted with mouse orthotopic 4T1-Luc cells assessed as effect on viscero-somatic ratio at 1 to 10 mg/kg, iv administered via tail vein every 2 days for 9 times for 17 days; type: organism-based; details: in vivo, 408 h, dose 1-10 mg/kg, time 17 day
[31] = target: Protein-arginine deiminase type-4 (Mus musculus) (UniProt Q9Z183); experiment: Inhibition of PAD4 in BALB/c mouse bone marrow neutrophils assessed as reduction in histone H3 citrullination at 2 uM preincubated for 2 hrs followed by calcium ionophore A23187 addition and measured after 2 hrs by Hoechst 33342/Ly6G staining based laser confocal microscopic analysis; details: Neutrophil, time 4.0 hrs
[32] = test system: 4T1-Luc; experiment: Antimetastatic activity against mouse orthotopic 4T1-Luc cells implanted in iv dosed female BALB/c mouse assessed as reduction in lung metastasis by measuring reduction in metastatic lung nodules administered via tail vein every 2 days for 9 times for 17 days; type: functional, organism-based; details: dose 1-10 mg/kg, time 17.0 day

Question: For `N=C(CCl)NCCC[C@H](NC(=O)c1cc2c([nH]c3ccccc32)c(-c2ccccc2)n1)C(=O)NCc1ccccc1`, which inhibition [1] is on record?
Answer: Its inhibition is “Active”.

Question: What about the Activity [2] of the same compound?
Answer: The Activity was “Dose-Dependent Effect”.

Question: What about the Activity [3] of the same compound?
Answer: Its Activity is “Dose-Dependent Effect”.

Question: What about the IC50 [4] of the same compound?
Answer: The IC50 was 2390 nM.

Question: And the Activity [5]?
Answer: Its Activity is “Non-Toxic”.

Question: And the Activity [6]?
Answer: The Activity was “Non-Toxic”.

Question: What about the Activity [7] of the same compound?
Answer: The Activity was “Active”.

Question: And the AUC [8]?
Answer: The AUC was 17346.55 ng·h/mL.

Question: What about the IC50 [9] of the same compound?
Answer: The IC50 was 790 nM.

Question: What about the Activity [10] of the same compound?
Answer: Its Activity is “Dose-Dependent Effect”.

Question: What about the Activity [11] of the same compound?
Answer: The Activity was “Active”.

Question: And the IC50 [12]?
Answer: Its IC50 is 2970 nM.

Question: What about the inhibition [13] of the same compound?
Answer: The inhibition was “Active”.

Question: What about the Activity [14] of the same compound?
Answer: Its Activity is “Dose-Dependent Effect”.

Question: And the Activity [15]?
Answer: The Activity was “Active”.

Question: And the Activity [16]?
Answer: The Activity was “Active”.

Question: What about the Activity [17] of the same compound?
Answer: The Activity was “Dose-Dependent Effect”.

Question: What about the CL [18] of the same compound?
Answer: Its CL is 1754 mL/min/kg.

Question: And the Tmax [19]?
Answer: The Tmax was 4.8 min.

Question: And the Activity [20]?
Answer: The Activity was “Dose-Dependent Effect”.

Question: What about the Activity [21] of the same compound?
Answer: The Activity was “Dose-Dependent Effect”.

Question: What about the Activity [22] of the same compound?
Answer: Its Activity is “Non-Toxic”.

Question: And the Activity [23]?
Answer: Its Activity is “Non-Toxic”.

Question: And the Activity [24]?
Answer: The Activity was “Active”.

Question: What about the Cmax [25] of the same compound?
Answer: The Cmax was 297.71 ng/mL.

Question: What about the Activity [26] of the same compound?
Answer: Its Activity is “Active”.

Question: And the Activity [27]?
Answer: Its Activity is “Active”.

Question: And the Activity [28]?
Answer: Its Activity is “Non-Toxic”.

Question: And the “beta t1/2” value [29]?
Answer: The value was 15 min.

Question: What about the Activity [30] of the same compound?
Answer: Its Activity is “Non-Toxic”.

Question: What about the inhibition [31] of the same compound?
Answer: The inhibition was “Active”.

Question: What about the Activity [32] of the same compound?
Answer: The Activity was “Dose-Dependent Effect”.
